Assays:
[1] = tested on: mouse collagen-induced arthritis model; assay: Therapeutic efficacy in a mouse collagen-induced arthritis model (clinical score); type: in vivo; conditions: mean of group, total score 0-12, oral, Methotrexate 0.25 mg/kg once a week, Tofacitinib 5 mg/kg once a day, X8 1 mg/kg once a day
Description: Example of Effect 2: Evaluation of the Therapeutic Efficacy of X8 Compound in a Mouse Collagen-Induced Arthritis Model
(§1) Sixty male DBA/1J mice (9-10 weeks old, H-2q haplotype) were acclimatized in a standard animal room for one week and then randomly divided into 5 groups. Except for the healthy control group, the rest were inoculated with collagen antigen injection, and then received oral treatment with different compounds. The brief procedure was to mix bovine type II collagen (purchased from Chondrex, 20021) with an equal volume of Freund's complete adjuvant (purchased from Sigma, F5881), the concentration was 4 mg/ml, and it was treated with a homogenizer at a speed of 20,000 revolutions/min for 5-10 minutes. A needle was inserted between the left side of the dorsal caudal artery and the lateral vein of the mouse, and 50 microliters of modeling agent was injected subcutaneously. 21 days after the first injection, another injection was injected between the right side of the dorsal tail artery and the lateral vein of the mouse. After the first injection, oral administration was started. The drug was formulated with […] PEG300, and it was prepared for immediate use. […] The total score was between 0-12 points, and the swelling of the foot after vaccination was not calculated.

[2] = Body weight of animals in the mouse collagen-induced arthritis model; type: in vivo; conditions: oral, X8 1 mg/kg once a day; for body weight of animals, Mean/g: mean of group, Methotrexate 0.25 mg/kg once a week, Tofacitinib 5 mg/kg once a day; for effect on body weight of animals (in words): whole experiment, days 0-45, methotrexate 0.25 mg/kg once a week, tofacitinib 5 mg/kg once a day
Description: as §1

## CN(Cc1cnc2nc(N)nc(N)c2n1)c1ccc(C(=O)N[C@@H](CCC(=O)O)C(=O)O)cc1 [Methotrexate, methotrexate]
[1]; day 0
  clinical score of arthritis, Mean (the larger the value, the more severe the disease): 0.00
[1]; day 21
  clinical score of arthritis, Mean (the larger the value, the more severe the disease): 0.00
[1]; day 25
  clinical score of arthritis, Mean (the larger the value, the more severe the disease): 0.00
[1]; day 28
  clinical score of arthritis, Mean (the larger the value, the more severe the disease): 0.40
[1]; day 31
  clinical score of arthritis, Mean (the larger the value, the more severe the disease): 1.32
[1]; day 33
  clinical score of arthritis, Mean (the larger the value, the more severe the disease): 1.55
[1]; day 35
  clinical score of arthritis, Mean (the larger the value, the more severe the disease): 2.05
[1]; day 38
  clinical score of arthritis, Mean (the larger the value, the more severe the disease): 2.41
[1]; day 40
  clinical score of arthritis, Mean (the larger the value, the more severe the disease): 2.60
[1]; day 42
  clinical score of arthritis, Mean (the larger the value, the more severe the disease): 3.66
[1]; day 45
  clinical score of arthritis, Mean (the larger the value, the more severe the disease): 4.61
[2]; day 0
  body weight of animals, Mean/g: 21.92 g
[2]; day 4
  body weight of animals, Mean/g: 22.30 g
[2]; day 7
  body weight of animals, Mean/g: 22.91 g
[2]; day 11
  body weight of animals, Mean/g: 23.33 g
[2]; day 14
  body weight of animals, Mean/g: 21.72 g
[2]; day 18
  body weight of animals, Mean/g: 23.92 g
[2]; day 20
  body weight of animals, Mean/g: 24.09 g
[2]; day 25
  body weight of animals, Mean/g: 23.64 g
[2]; day 28
  body weight of animals, Mean/g: 23.48 g
[2]; day 31
  body weight of animals, Mean/g: 23.12 g
[2]; day 33
  body weight of animals, Mean/g: 23.00 g
[2]; day 35
  body weight of animals, Mean/g: 22.08 g
[2]; day 38
  body weight of animals, Mean/g: 22.86 g
[2]; day 40
  body weight of animals, Mean/g: 22.70 g
[2]; day 42
  body weight of animals, Mean/g: 22.45 g
[2]; day 45
  body weight of animals, Mean/g: 22.30 g
[2]
  effect on body weight of animals (in words): two sudden drops

## C[C@@H]1CCN(C(=O)CC#N)C[C@@H]1N(C)c1ncnc2[nH]ccc12 [Tofacitinib, tofacitinib]
[1]; day 0
  clinical score of arthritis, Mean (the larger the value, the more severe the disease): 0.00
[1]; day 21
  clinical score of arthritis, Mean (the larger the value, the more severe the disease): 0.00
[1]; day 25
  clinical score of arthritis, Mean (the larger the value, the more severe the disease): 0.00
[1]; day 28
  clinical score of arthritis, Mean (the larger the value, the more severe the disease): 0.81
[1]; day 31
  clinical score of arthritis, Mean (the larger the value, the more severe the disease): 1.83
[1]; day 33
  clinical score of arthritis, Mean (the larger the value, the more severe the disease): 2.19
[1]; day 35
  clinical score of arthritis, Mean (the larger the value, the more severe the disease): 2.52
[1]; day 38
  clinical score of arthritis, Mean (the larger the value, the more severe the disease): 2.77
[1]; day 40
  clinical score of arthritis, Mean (the larger the value, the more severe the disease): 2.62
[1]; day 42
  clinical score of arthritis, Mean (the larger the value, the more severe the disease): 3.14
[1]; day 45
  clinical score of arthritis, Mean (the larger the value, the more severe the disease): 2.90
[2]; day 0
  body weight of animals, Mean/g: 21.94 g
[2]; day 4
  body weight of animals, Mean/g: 22.41 g
[2]; day 7
  body weight of animals, Mean/g: 22.76 g
[2]; day 11
  body weight of animals, Mean/g: 22.79 g
[2]; day 14
  body weight of animals, Mean/g: 22.55 g
[2]; day 18
  body weight of animals, Mean/g: 22.87 g
[2]; day 20
  body weight of animals, Mean/g: 23.20 g
[2]; day 25
  body weight of animals, Mean/g: 22.48 g
[2]; day 28
  body weight of animals, Mean/g: 22.46 g
[2]; day 31
  body weight of animals, Mean/g: 22.37 g
[2]; day 33
  body weight of animals, Mean/g: 22.65 g
[2]; day 35
  body weight of animals, Mean/g: 22.43 g
[2]; day 38
  body weight of animals, Mean/g: 22.30 g
[2]; day 40
  body weight of animals, Mean/g: 20.90 g
[2]; day 42
  body weight of animals, Mean/g: 22.13 g
[2]; day 45
  body weight of animals, Mean/g: 22.30 g
[2]
  effect on body weight of animals (in words): weight loss in the late stage of the experiment

From US20230099441A1, “HETEROCYCLIC COMPOUND, APPLICATION THEREOF, AND COMPOSITION CONTAINING SAME” (GenEros Biopharma Ltd., priority 2019, published 2023)
